Data as given in patent US20240292836A1, “AGENTS FOR REPELLING, KNOCKING DOWN, AND/OR KILLING BLOOD-SUCKING ARTHROPODS AND USES THEREOF” (The United States of America, as represented by the …, priority 2023, published 2024).

Experiments:
[1] = test system: female Aedes aegypti adults; assay: High-throughput in vitro screening assay, spatial repellency; type: in vivo; settings: for RD50 (30 min), half-repellent dose / RD50 (60 min), half-repellent dose: dose per filter paper surface area, 95% CI; for spatial repellency (in words): highest-tested dose of 100 μg/cm^2
Text: A high-throughput screening method for evaluating spatial repellency and vapor toxicity, described by Jiang S., et al. (2019, “High-Throughput Screening Method for Evaluating Spatial Repellency and Vapour Toxicity to Mosquitoes,” Med. Vet. Entomol. 33: 388-396), was used for this study. As shown in FIG. 2 of Jiang S., et al., assay tubes were constructed by covering 12.5 cm glass tubes on one side with netting secured by a rubber band. The tubes were used in horizontal orientation. Adult mosquitos 2-7 days old were anesthetized on ice for approximately 5 minutes and 16 females were transferred to each tube. The other end of the tube was then closed with netting and a rubber band.
The conical ends of 50 mL centrifuge tubes (Eppendorf, Enfield, Connecticut, USA) were cut at approximately the 10 mL mark to create the end caps for the assay tubes. […] For repellency tests, filter papers for the “untreated” side of the assay tube received pure acetone, whereas filter papers for the “treated” side received acetone solution containing a dissolved compound of interest. For knockdown tests, both filter papers were treated with acetone solution containing one or more compounds of interest. Acetone on both filter papers served as negative controls.
For repellency assays, filter papers were given 10 minutes of evaporation time before being placed into the end caps with forceps (Jiang S., et al. 2019, Supra). For knockdown assays, filter papers were given 5 minutes of evaporation time before being placed into the end caps. […] Assay tubes were capped such that the cap securely overlapped the glass but approximately 5 mm of space was left between the netting and the filter paper so that the mosquitos could not contact the filter paper.
Assay tubes were placed on a white polystyrene platform with wooden sticks glued flatly across it to prevent the tubes from rolling. A straight black line was drawn down the center of the platform and assay tubes were centered on the line at the beginning of the tests. In repellency assays, data were collected at 15, 30, and 60 minutes after the end caps were placed on the assay tubes. Assay tubes were not disturbed for the entire 60 minutes. At each time point, the number of mosquitos that remained on the treated side was visually assessed and recorded. The treated side was alternated with each set of tests. For repellency tests, DEET at a dose of 100 μg/cm^2 served as the positive control.
For the high-throughput in vitro screening assays, analyses were conducted with R version 4.2.2 statistical software (R Core Team, 2022, “R: a language and environment for statistical computing. R foundation for statistical computing,” Vienna, Austria). Concentrations were calculated in terms of filter paper surface area (μg/cm^2) for repellency assays and in terms of assay tube volume (μg/cm^3) for knockdown assays.
Half-repellent (RD50), half-knockdown (KD50), and half-lethal (LD50) doses were calculated from dose-response curves (DRCs) obtained by four-parameter log-logistic equation models generated using the drc package (Dose Response Curve Analyses Software; Ritz C. et al., 2015, “Dose-response analysis using R,” PLOS ONE 10: e0146021). For repellency test analysis, the upper and lower asymptotes for the proportion of mosquitos remaining on the treated side were fixed at 0.5 and 0, respectively. For KD and mortality test analysis, the upper and lower asymptotes for the proportion of mosquitos knocked down or killed were fixed at 1.0 and 0, respectively. To determine whether RD50, KD50, or LD50 values differed across compounds at each timepoint, a joint model assuming different values for each compound and a null model that assumed a single value for all compounds were compared with a likelihood ratio test.

[2] = test system: female Aedes aegypti adults; assay: Arm-in-cage cloth-patch in vivo assay (topical repellency); settings: for Minimum Effective Dose (MED): Mean ± SEM, lowest dosage with five or fewer bites through repellent-treated cloth in 1-minute exposure, at least three volunteers; for topical repellency (in words): initial screening dose of 0.187 mg/cm^2
Text: Arm-in-Cage Test Cloth-Patch in vivo Assay Pyrethroid-susceptible yellow fever mosquitoes Ae. aegypti (Orlando strain) were reared in the United States Department of Agriculture Mosquito and Fly Research Unit in Gainesville, FL under standard protocols. Three to seven-day-old, starved female mosquitoes were collected using a “draw box” (Posey, K. and Schreck, C. E, 1981, “An airflow apparatus for selecting female mosquitoes for use in repellent and attraction studies” Mosquito News 41: 566-568; US. Department of Agriculture, 1977, Repellent activity of compounds submitted by Walter Reed Army Institute of Research. Part 1. Protection time and minimum effective dosage against Aedes aegypti mosquitoes. Tech. Bull. No. 1549) and were placed in cages at an approximate density 200 mosquitoes/cage. Repellency was determined according to a standard protocol (Bernier, U. R., et al, 2022. “Evaluation and application of repellent-treated uniform/clothing and textiles against vector mosquitoes,” In Advances in Arthropod Repellents (pp. 69-94). Academic Press) and reported as the minimum effective dosage (MED). […] A nylon leg stocking was placed over the arm to prevent direct contact of the repellent-treated cloth patch with the skin. […]. Cloth was treated by placing a rolled bandage (50 cm^2) into each vial containing 1 mL of solution and allowing the patch to absorb the solution completely. The cloth was taped over a 4 by 9-cm opening cut into a vinyl plastic sheet that was draped around the volunteers' arms and taped in place. The cloth was air-dried approximately 15 min before conducting each test. The work reported here is an average of the MED for at least three volunteers. Each volunteer covered his or her arm with a nylon stocking to avoid contact between the skin and the treated cloth and wore a rubber glove to prevent mosquito bites on the hand.
. The minimum effective dose (MED) was determined for each repellent and subject, defined as the lowest concentration that prevents biting). MEDs from each subject were pooled and reported as the average among all replicates/subjects with SEM. A minimum of 3 replicates were performed on at least three human subjects. Written informed consent was obtained for all human subjects used in this study in accordance with IRB protocol #20193320, as approved by the WCG™ IRB.
Statistical Analyses: Student's T-test was used to compare the means between tested compound and DEET and Icaridin in the arm-in-cage in vivo assay and neurophysiological study.

Row | Structure (SMILES) | RD50 (30 min), half-repellent dose [1] | RD50 (60 min), half-repellent dose [1] | spatial repellency (in words) [1] | Minimum Effective Dose (MED) [2] | topical repellency (in words) [2] | 30-minute RD50 compared with that of DEET ([1]; 30 minutes, α = 0.05) | MED, times lower than the initial screening dose ([2]; relative to initial screening dose of 0.187 mg/cm^2)
1 | COC(=O)c1ccc(O)cc1 [M4HB, methyl 4-hyhroxylbenzoate] | >100 μg/cm^2 | >100 μg/cm^2 | did not show spatial repellencies | >0.187 mg/cm^2 | did not show any topical repellencies | – | –
2 | COC(=O)c1ccc(C)cc1 [M4MB, methyl 4-methylbenzoate] | >100 μg/cm^2 | >100 μg/cm^2 | did not show spatial repellencies | >0.187 mg/cm^2 | did not show any topical repellencies | – | –
3 | COC(=O)c1ccc(OC)cc1 [M4MOB, methyl 4-methoxybenzoate] | >100 μg/cm^2 | >100 μg/cm^2 | did not show spatial repellencies | >0.187 mg/cm^2 | did not show any topical repellencies | – | –
4 | COC(=O)c1ccc(C(F)(F)F)cc1 [M4tFMB, methyl 4-(trifluoromethyl)benzoate] | >100 μg/cm^2 | >100 μg/cm^2 | did not show spatial repellencies | >0.187 mg/cm^2 | did not show any topical repellencies | – | –
5 | COC(=O)c1ccccc1N [MA, methyl anthranilate] | 11.84 μg/cm^2 | – | – | 0.027 mg/cm^2 | – | significantly lower than that of DEET | –
6 | COC(=O)c1ccccc1NC(C)=O [MAcA, methyl N-acetylanthranilate] | >100 μg/cm^2 | >100 μg/cm^2 | did not show spatial repellencies | 0.101 mg/cm^2 | demonstrated repellency at doses lower than 0.187 mg/cm^2 on at least one test subject | – | –
7 | COC(=O)c1ccccc1 [MB, Methyl benzoate] | >100 μg/cm^2 | >100 μg/cm^2 | did not show spatial repellencies | >0.187 mg/cm^2 | did not show any topical repellencies | – | –
8 | O=C(Oc1ccccc1)c1ccccc1 [PhB, phenyl benzoate] | >100 μg/cm^2 | >100 μg/cm^2 | did not show spatial repellencies | >0.187 mg/cm^2 | did not show any topical repellencies | – | –
9 | O=C(OCCc1ccccc1)c1ccccc1 [PhEB, phenethyl benzoate] | >100 μg/cm^2 | >100 μg/cm^2 | did not show spatial repellencies | >0.187 mg/cm^2 | did not show any topical repellencies | – | –
10 | C=COC(=O)c1ccccc1 [VB, vinyl benzoate] | >100 μg/cm^2 | >100 μg/cm^2 | did not show spatial repellencies | >0.187 mg/cm^2 | did not show any topical repellencies | – | –
11 | CC(C)OC(=O)c1ccccc1 [iPrB, iso-propyl benzoate] | >100 μg/cm^2 | >100 μg/cm^2 | did not show spatial repellencies | >0.187 mg/cm^2 | did not show any topical repellencies | – | –
12 | CCCCOC(=O)c1ccc(O)cc1 [nB4HB, n-butyl 4-hydroxybenzoate] | >100 μg/cm^2 | >100 μg/cm^2 | did not show spatial repellencies | >0.187 mg/cm^2 | did not show any topical repellencies | – | –
13 | CCCCOC(=O)c1ccccc1NC=O [nBFA, n-Butyl N-formylanthranilate] | >100 μg/cm^2 | >100 μg/cm^2 | did not show any spatial repellencies | 0.0075 mg/cm^2 | – | – | 25 times
14 | CCCOC(=O)c1ccc(O)cc1 [nPr4HB, n-propyl 4-hydroxylbenzoate] | >100 μg/cm^2 | >100 μg/cm^2 | did not show spatial repellencies | >0.187 mg/cm^2 | did not show any topical repellencies | – | –
15 | CCCOC(=O)c1ccccc1 [nPrB, n-propyl benzoate] | >100 μg/cm^2 | >100 μg/cm^2 | did not show spatial repellencies | 0.250 mg/cm^2 | demonstrated repellency at doses lower than 0.187 mg/cm^2 on at least one test subject | – | –
